How the values were obtained:
[1] = tested on: scopolamine-induced cognitive deficits in mice; conditions: 1 and 2.5 mg/kg doses; as shown previously; cited from earlier work
[2] = tested on: mice (motor coordination); conditions: already at the dose of 1 mg/kg, as shown previously; cited from earlier work
[3] = tested on: TLR4, COX-2, NLRP3, cPLA2 levels in brains of LPS-treated mice; test: Western blot of brains of LPS-treated mice (ex vivo); format: in vivo; conditions: 94, 95: 10 mg/kg i.p.; rivastigmine 1 mg/kg i.p.; vs LPS-treated control
Description: After the completion of cognitive assays carried out in the LPS model, the mice were sacrificed, and their brains were collected and stored for further analysis. In the ex vivo part of the study, murine brains were homogenized using T-PER mammalian protein extraction reagent (Thermo Fisher Scientific, Waltham, MA, USA) with protease (Merck Millipore, Burlington, MA, USA) and phosphatase inhibitors (Cayman Chemical, Ann Arbor, MI, USA). The total protein concentrations were determined using the Bradford reaction. Forty μg of the total proteins were solubilized in Laemmli buffer with 2% 2-mercaptoethanol and were subject to 10% SDS-polyacrylamide gel electrophoresis. The anticyclooxygenase 2 (COX-2, diluted 1:1000), antitoll-like receptor 4 (TLR4, diluted 1:1000), anticytosolic phospholipase A2 (cPLA2, 1:1000), and anti-inflammasome (NLPR3, diluted 1:500) were used (Thermo Fisher Scientific, Waltham, MA, USA). The endogenous control was β-actin (1:1000) (Thermo Fisher Scientific, Waltham, MA, USA). The secondary antibody was antirabbit IgG (HRP) diluted 1:2000 (Thermo Fisher Scientific, Waltham, MA, USA). Proteins were detected using the Clarity Western ECL Luminol Substrate (Bio-Rad, Hercules, CA, USA). Chemi Doc Camera with Image Lab 6.1 software (Bio-Rad) was used to quantify the integrated optical density of the bands. The results were normalized to the data obtained for β-actin after stripping the PVDF membrane using Restore Western Blot Stripping Buffer (Thermo Fisher Scientific, Waltham, MA, USA) and expressed as relative to the control. This thorough process ensures the validity and reliability of the results.

[4] = Pharmacokinetic study in mice
Description: In this study, male CD-1 mice weighing 27–34 g housed in conditions of constant temperature with a 12:12 h light-dark cycle with free access to food and water were used. Both tested and reference compounds were suspended in 1% Tween in water for injection (Polpharma, Poland) and administered intraperitoneally (i.p.). The mice were sacrificed by decapitation under isoflurane anesthesia at different time points following compound administration. Brains were harvested at the same time points. Blood was allowed to clot at room temperature for 20 min, and serum was separated by centrifugation at 8 000g (Eppendorf MiniSpin centrifuge, Germany) for 10 min. All samples were stored at −80 °C until analysis.
The analytical workflow employed a Sciex QTRAP 4500 triple quadrupole mass spectrometer interfaced with an Exion LC AC HPLC system (Danaher Corporation, USA). Chromatographic separation was achieved on an XBridge C18 column (3 × 50 mm, 5 μm; Waters, USA), utilizing a mobile phase composed of acetonitrile and water both containing 0.1% formic acid. The column temperature was maintained at 40 °C, and a gradient elution protocol (Table S10) was implemented to ensure optimal analyte resolution and retention times. Mass spectrometric detection was conducted in unit resolution mode, with ion transitions specified in Table S11. […] Valsartan served as the internal standard and was monitored at m/z 436 → 207 (collision energy = 42 eV). Positive electrospray ionization (ESI+) was employed to enhance detection sensitivity. Ion path parameters (Table S11) were optimized via direct infusion of analyte solutions (7 μL/min) using a syringe pump. The optimized source conditions included an ion spray voltage of 5500 V, a source temperature of 450 °C, curtain gas pressure at 20 psi, and medium collision gas pressure. […] No significant matrix effects or stability concerns were observed during routine sample analysis. Data acquisition and processing were carried out using Analyst software version 1.7.
Serial dilutions were performed to generate working solutions ranging from 0.01 to 20 μg/mL, corresponding to final calibration concentrations of 0.001–2 μg/mL. For calibration curve construction, 5 μL of each working solution was spiked into 45 μL of the relevant biological matrix (serum or brain homogenate) and vortexed for 10 s. Sample preparation involved protein precipitation, in a 1:3 (v/v) ratio, using acetonitrile containing 0.1% formic acid and the internal standard. The mixtures were agitated for 10 min using an IKA Vibrax VXR shaker (Germany), followed by centrifugation at 8000 × g for 5 min (Eppendorf miniSpin, Germany). The resulting supernatants were transferred to chromatographic vials for analysis.
Brain tissues were homogenized in distilled water at a 1:4 (w/v) ratio using an ULTRA-TURRAX T10 basic homogenizer (IKA, Germany). Aliquots of brain homogenate or serum (50 μL) were subjected to protein precipitation in a 1:3 (v/v) ratio with acetonitrile containing 0.1% formic acid and the internal standard. The mixtures were agitated for 10 min using an IKA Vibrax VXR shaker (Germany), followed by centrifugation at 8000 × g for 5 min (Eppendorf miniSpin, Germany). The resulting supernatants were directly transferred to chromatographic vials for analysis. In cases where analyte concentrations in serum exceeded 20 μg/mL, samples were diluted with blank matrix prior to the deproteinization step. The autosampler was maintained at 15 °C, and a 1 μL aliquot was injected onto the analytical column.
Pharmacokinetic parameters were estimated using the noncompartmental analysis (NCA). The maximum concentration (C max) and the time to reach maximum concentration (t max) in serum and brain were obtained directly from the concentration versus time data.

[5] = tested on: scopolamine-induced cognitive deficits in mice; conditions: scopolamine-induced memory-impaired mice; doses of 1 and 2.5 mg/kg; reported previously; cited from earlier work
[6] = PAMPA
LPS-treated mice = test: Morris water maze task, LPS model of neuroinflammation; format: in vivo; conditions: 1 mg/kg i.p.
[7] = brain, rivastigmine 2.5 mg/kg i.p., mice
[8] = male, CD-1, mouse, brain, ip, 2.5 mg/kg
[9] = male, CD-1, mouse, serum, ip, 2.5 mg/kg

## CCN(C)C(=O)Oc1cccc([C@H](C)N(C)C)c1 [rivastigmine, reference compound]
[1]
  efficacy in PA and NOR tasks: effective
[2]
  motor side effects shortly after administration: caused muscle tremor and transient motor coordination deficits
[3]
  brain cPLA2 expression: no difference
  brain levels of TLR4, COX-2, and NLRP3: significantly lower levels
[4]; [7]
  AUC0-∞: 12082.71 ng·min/mL(g)
  AUC(0-t): 11678.40 ng·min/mL(g)
  t0.5λz: 32.64 min
[4]; [8]
  Cmax: 609 ng/g
  MRT: 26.6 min
  Tmax: 5 min
  k el: 0.00035 s⁻¹
[4]; male, CD-1, mouse, brain/serum, ip, 2.5 mg/kg
  Kp: 4.16
[4]; male, CD-1, mouse, serum and brain, ip, 2.5 mg/kg
  half-life: ~30 min
[4]; [9]
  AUC(0-inf): 48.4 ng·h/mL
  AUC(0-t): 46.8 ng·h/mL
  CL/F: 860 mL/min/kg
  Cmax: 142 ng/mL
  MRT: 27.8 min
  Tmax: 5 min
  Vd/F: 37.2 L/kg
  k el: 0.000383 s⁻¹
[4]; serum, rivastigmine 2.5 mg/kg i.p., mice
  t0.5λz: 29.99 min
[5]
  procognitive efficacy in PA task: procognitive activity
[6]
  CNS (+/–): CNS+ (key: CNS+ indicates high predicted BBB permeation [Pe (×10–6 cm/s) > 4.0]; CNS– indicates low predicted BBB permeation [Pe (×10–6 cm/s) < 2.0])
LPS-treated mice
  efficacy in the LPS model of neuroinflammation accompanied by memory decline: not effective
LPS-treated mice; vs LPS-treated control, transient, not on days 4–6
  escape latency, acquisition phase of MWM: statistically significantly lower escape latencies were observed on day 3
